Marks after values point to notes of the source that are not given here.
Legend:
[1] = tested on: Septoria nodorum; experiment: Test E: Septoria glume blotch, preventive spray on wheat seedlings, visual disease rating; type: in vivo
Excerpt: (§1) General protocol for preparing test suspensions for Tests A-E: the test compounds were first dissolved in acetone in an amount equal to 3% of the final volume and then suspended at the desired concentration (in ppm) in acetone and purified water (50/50 mix by volume) containing 250 ppm of the surfactant Trem® 014 (polyhydric alcohol esters). The resulting test suspensions were then used in Tests A-E. Spraying a 200 ppm test suspension to the point of run-off on the test plants was the equivalent of a rate of 800 g/ha.
The test suspension was sprayed to the point of run-off on wheat seedlings. The following day the seedlings were inoculated with a spore suspension of Septoria nodorum (the causal agent of Septoria glume blotch) and incubated in a saturated atmosphere at 20° C. for 48 h, and then moved to a growth chamber at 20° C. for 9 days, after which time visual disease ratings were made.
(§2) Results for Tests A-E are given in Table A. In the Table, a rating of 100 indicates 100% disease control and a rating of 0 indicates no disease control (relative to the controls). A dash (-) indicates no test results. All results are for 200 ppm except where followed by an asterisk “*” which indicates a 250 ppm test suspension was used or a double asterisk “**” which indicates a 50 ppm test suspension was used.

[2] = tested on: Septoria tritici; experiment: Test B: wheat leaf blotch, preventive spray on wheat seedlings, visual disease rating; type: in vivo
Excerpt: as §1
(§3) The test suspension was sprayed to the point of run-off on wheat seedlings. The following day the seedlings were inoculated with a spore suspension of Septoria tritici (the causal agent of wheat leaf blotch) and incubated in a saturated atmosphere at 24° C. for 48 h, and then moved to a growth chamber at 20° C. for 19 days, after which time visual disease ratings were made.
as §2

[3] = tested on: Botrytis cinerea; experiment: Test C: tomato Botrytis, preventive spray on tomato seedlings, visual disease rating; type: in vivo
Excerpt: as §1
as §3, with “tomato” for “wheat”, “Botrytis cinerea” for “Septoria tritici”, “tomato Botrytis)” for “wheat leaf blotch)”, “20°” for “24°”, “24°” for “20°”, “3” for “19”
as §2

[4] = tested on: Blumeria graminis f sp. tritici; experiment: Test D: wheat powdery mildew, preventive spray on wheat seedlings, visual disease rating; type: in vivo
Excerpt: as §1
The test suspension was sprayed to the point of run-off on wheat seedlings. The following day the seedlings were inoculated with a spore dust of Blumeria graminis f sp. tritici, (also known as Erysiphe graminis f sp. tritici, the causal agent of wheat powdery mildew) and incubated in a growth chamber at 20° C. for 8 days, after which time visual disease ratings were made.
as §2

[5] = tested on: Puccinia recondita f. sp. tritici; experiment: Test A: wheat leaf rust, preventive spray on wheat seedlings, visual disease rating; type: in vivo
Excerpt: as §1
as §3, with “Puccinia recondita f. sp.” for “Septoria”, “rust)” for “blotch)”, “20°” for “24°”, “24” for “48”, “7” for “19”
as §2

[6] = 200 ppm test suspension, 100 = 100% disease control, 0 = no control

Row | melting point [°C] | SMILES | Test E disease control rating ([1]; 200 ppm test suspension) [%] | Test B disease control rating ([2]; 200 ppm test suspension) [%] | Test C disease control rating ([3]; 200 ppm test suspension) [%] | Test D disease control rating ([4]; 200 ppm test suspension) [%] | Test A disease control rating [5, 6] [%] | Test B disease control rating ([2]; 250 ppm test suspension (*)) | Test C disease control rating ([3]; 250 ppm test suspension (*)) | Test D disease control rating ([4]; 250 ppm test suspension (*)) | Test A disease control rating ([5]; 250 ppm test suspension (*)) | Test E disease control rating ([1]; 250 ppm test suspension (*))
1 |  | CCCCCCCCc1c(C)nn(C)c1Nc1ccc(F)cc1 [Compound 1] | 0 | 0 | 0 | 63 | 41 |  |  |  |  | 
2 |  | CCCCCCCCc1c(C)nn(C)c1Nc1ccc(F)cc1Cl [Compound 2] | 0 | 0 | 0 | 0 | 0 |  |  |  |  | 
3 |  | Cc1nn(C)c(Nc2c(F)cc([N+](=O)[O-])cc2F)c1C1=CCCCC1 [Compound 4] | 0 | 93 | 92 | 0 | 32 |  |  |  |  | 
4 |  | Cc1nn(C)c(Nc2c(F)cc(N)cc2F)c1C1=CCCCC1 [Compound 5] | 0 | 1 | 0 | 0 | 0 |  |  |  |  | 
5 |  | Cc1nn(C)c(Nc2c(F)cc(Cl)cc2F)c1C1=CCCCC1 [Compound 6, N-(4-chloro-2,6-difluorophenyl)-4-(1-cyclohexen-1-yl)-1,3-dimethyl-1H-pyrazol-5-amine] | 0 | 84 | 98 | 0 | 19 |  |  |  |  | 
6 |  | CCC(=O)c1c(C)nn(C)c1Oc1c(F)cccc1F [Compound 7] | 0 | 62 | 0 | 0 | 0 |  |  |  |  | 
7 | 171 to 173 | Cc1nn(C)c(C(O)c2ccc(F)cc2Cl)c1C1CCCCC1 (stereo not drawn) [Compound 11, α-(2-chloro-4-fluorophenyl)-4-cyclohexyl-1,3-dimethyl-1H-pyrazole-5-methanol] |  |  |  |  |  | 100* % | 24* % | 93* % | 86* % | 
8 |  | Cc1nn(C)c(Nc2ccc(F)cc2Cl)c1C1=CCC(C#N)CC1 (stereo not shown) [Compound 13] |  |  |  |  |  | 97* % | 79* % | 13* % | 67* % | 0* %
9 |  | Cc1nn(C)c(Nc2ccc(F)cc2)c1C1CCC(C)(C)CC1 [Compound 14] |  |  |  |  |  | 33* % | 0* % | 27* % | 67* % | 62* %
10 |  | Cc1nn(C)c(Nc2ccc(F)cc2F)c1C1CCC(C)CC1 (stereo not shown) [Compound 16] |  |  |  |  |  | 0* % | 19* % | 97* % | 53* % | 19* %
11 |  | CC(=NO)c1c(C)nn(C)c1Nc1ccc(F)cc1Cl [Compound 34] |  |  |  |  |  | 76* % | 0* % | 64* % | 28* % | 0* %
12 |  | C=C(C)c1c(C)nn(C)c1Nc1c(F)cc([N+](=O)[O-])cc1F [Compound 36] |  |  |  |  |  | 88* % | 0* % | 27* % | 55* % | 0* %
13 |  | Cc1nn(C)c(Nc2c(F)cc(Cl)cc2F)c1C1=CCCC1 [Compound 43] | 0 | 92 | 0 | 0 | 68 |  |  |  |  | 
14 |  | CCC(O)(CC)c1c(C)nn(C)c1Oc1c(F)cccc1F [Compound 44] | 0 | 15 | 3 | 43 | 0 |  |  |  |  | 
15 |  | CCCON=C(CC)c1c(C)nn(C)c1Oc1c(F)cccc1F [Compound 45] | 0 | 3 | 0 | 0 | 0 |  |  |  |  | 
16 |  | Cc1nn(C)c(Nc2c(F)cc(Cl)cc2F)c1C1CCCCC1 [Compound 46, N-(4-chloro-2,6-difluorophenyl)-4-cyclohexyl-1,3-dimethyl-1H-pyrazol-5-amine] | 0 | 99 | 95 | 98 | 92 |  |  |  |  | 
17 |  | CCC(=NO)c1c(C)nn(C)c1Oc1c(F)cccc1F [Compound 47] | 0 | 81 | 0 |  | 0 |  |  | 89* % |  | 
18 |  | CCC(=NOC(C)C)c1c(C)nn(C)c1Oc1c(F)cccc1F [Compound 48] | 0 | 32 | 18 | 0 | 0 |  |  |  |  | 
19 |  | CCC(=NOC)c1c(C)nn(C)c1Oc1c(F)cccc1F [Compound 49] | 0 | 16 | 39 | 0 | 0 |  |  |  |  | 
20 |  | CCON=C(CC)c1c(C)nn(C)c1Oc1c(F)cccc1F [Compound 50] | 0 | 40 | 3 | 0 | 0 |  |  |  |  | 
21 |  | CC=C(CC)c1c(C)nn(C)c1Oc1c(F)cccc1F [Compound 51] | 0 | 0 | 15 | 0 | 0 |  |  |  |  | 
22 |  | Cc1nn(C)c(Nc2c(F)cc(Cl)cc2F)c1C1CCCC1 [Compound 52, N-(4-chloro-2,6-difluorophenyl)-4-cyclopenyl-1,3-dimethyl-1H-pyrazol-5-amine] | 0 | 99 | 96 | 98 | 89 |  |  |  |  | 
23 |  | Cc1nn(C)c(Nc2ccc(F)cc2F)c1C1=CCOCC1 [Compound 58] |  |  |  |  |  | 25* % | 0* % | 0* % | 0* % | 
24 |  | Cc1nn(C)c(Nc2ccc(F)cc2F)c1C1CCOCC1 [Compound 59] |  |  |  |  |  | 92* % | 24* % | 98* % | 41* % | 
25 |  | Cc1nn(C)c(Nc2ccc(F)cc2Cl)c1C1=CCC(C)(C)CC1 [Compound 60] |  |  |  |  |  | 16* % | 0* % | 0* % | 19* % | 
26 |  | Cc1nn(C)c(Nc2ccc(F)cc2Cl)c1C1CCC(C)CC1 (stereo not shown) [Compound 61] |  |  |  |  |  | 53* % | 0* % | 97* % | 0* % | 
27 |  | Cc1nn(C)c(Nc2ccc(F)cc2Cl)c1C1CCC(C)(C)CC1 [Compound 62] |  |  |  |  |  | 9* % | 0* % | 96* % | 68* % | 
28 |  | Cc1nn(C)c(Nc2ccc(F)cc2F)c1C1CCC(C#N)CC1 (stereo not shown) [Compound 63] |  |  |  |  |  | 55* % | 0* % | 96* % | 86* % | 
29 |  | Cc1nn(C)c(Nc2ccc(F)cc2)c1C1CCC(C)CC1 (stereo not shown) [Compound 64] |  |  |  |  |  | 58* % | 0* % | 96* % | 55* % | 
30 |  | Cc1nn(C)c(Nc2ccc(F)cc2Cl)c1C1CCC(C#N)CC1 (stereo not shown) [Compound 65] |  |  |  |  |  | 54* % | 0* % | 13* % | 55* % | 

— patent publication US20180042234A1, “FUNGICIDAL PYRAZOLES” (E I DU PONT DE NEMOURS AND COMPANY, priority 2015, published 2018)
